Laboratory results published in US20130065962A1, “Compounds For Use In The Treatment Of Diseases” (INOXIA LIFESCIENCES GMBH, priority 2010, published 2013).
Where two headings read alike, the source gives them in different places.

What was measured:
Assay type in all cases: biochemical
[1] = biological target: T1, eosinophil peroxidase (EPO) (Homo sapiens, UniProt P11678); experiment: EPO bromination activity, monochlorodimedon (MCD) assay
T1 construct: 20 nM of EPO
T1 sequence (P11678 140-715): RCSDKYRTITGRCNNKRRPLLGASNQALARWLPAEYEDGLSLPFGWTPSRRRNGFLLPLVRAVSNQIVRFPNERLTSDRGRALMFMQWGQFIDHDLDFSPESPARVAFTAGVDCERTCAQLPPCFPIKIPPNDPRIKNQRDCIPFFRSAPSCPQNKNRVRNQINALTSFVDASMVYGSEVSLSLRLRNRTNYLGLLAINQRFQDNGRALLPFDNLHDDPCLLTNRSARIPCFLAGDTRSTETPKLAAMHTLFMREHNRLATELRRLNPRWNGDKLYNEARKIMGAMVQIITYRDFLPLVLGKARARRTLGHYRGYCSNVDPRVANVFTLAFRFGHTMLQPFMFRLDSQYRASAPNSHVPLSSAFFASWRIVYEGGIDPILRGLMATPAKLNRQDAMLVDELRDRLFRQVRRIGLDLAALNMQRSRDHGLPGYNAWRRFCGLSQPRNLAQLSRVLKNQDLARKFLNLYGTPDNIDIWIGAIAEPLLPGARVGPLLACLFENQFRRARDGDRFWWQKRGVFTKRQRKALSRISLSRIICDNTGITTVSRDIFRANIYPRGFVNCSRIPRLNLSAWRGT
Method: In order to test to what extent the substances according to the invention are able to inhibit EPO, the substances were tested for their inhibitory potential. […] In that, IC50 is that inhibitor concentration, which is required to inhibit an enzyme, here EPO, by 50%. This concentration is determined UV/Vis spectrophotometrically at 290 nm in the steady-state with a monochlorodimedon (MCD) assay.
Eosinophil peroxidase forms a multiplicity of different enzyme intermediates and is able to catalyze a high number of redox reactions. The physiological role of EPO is the oxidation of bromide or thiocyanate, respectively, to hypobromous acid or hypothiocyanate, respectively (also called halogenation cycle). And it is exactly this reaction that has to be inhibited. In the presence of phenolic substances, however, the enzyme can also undergo the so-called peroxidase cycle.
In order to determine the properties of the substances according to the invention to be inhibited, a method was used, in which the bromination activity is examined.
The extent of inhibition of the physiological bromide oxidation was photometrically determined using monochlorodimedon. The halogenation rate (initial inclination of the curve at 290 nm) with inhibitor was related to a blind value (without inhibitor), and therefrom the inactivation rate (in %) was determined. This was entered into a diagram (y-axis) opposite the inhibitor concentration (x-axis), and from the hyperbolic fit of the curve, the IC50 value for each inhibitor was determined.
100 mM of phosphate buffer, pH 7.0
100 μM of monochlorodimedon

lactoperoxidase (LPO) = lactoperoxidase (LPO) (UniProt P80025); experiment: LPO + Br halogenation inhibition (MCD assay); settings: bromide as substrate
myeloperoxidase (MPO) [2] = biological target: T2, myeloperoxidase (MPO) (Homo sapiens, UniProt P05164); experiment: MPO + Br halogenation inhibition (MCD assay); settings: bromide as substrate
T2 sequence (P05164 49-745): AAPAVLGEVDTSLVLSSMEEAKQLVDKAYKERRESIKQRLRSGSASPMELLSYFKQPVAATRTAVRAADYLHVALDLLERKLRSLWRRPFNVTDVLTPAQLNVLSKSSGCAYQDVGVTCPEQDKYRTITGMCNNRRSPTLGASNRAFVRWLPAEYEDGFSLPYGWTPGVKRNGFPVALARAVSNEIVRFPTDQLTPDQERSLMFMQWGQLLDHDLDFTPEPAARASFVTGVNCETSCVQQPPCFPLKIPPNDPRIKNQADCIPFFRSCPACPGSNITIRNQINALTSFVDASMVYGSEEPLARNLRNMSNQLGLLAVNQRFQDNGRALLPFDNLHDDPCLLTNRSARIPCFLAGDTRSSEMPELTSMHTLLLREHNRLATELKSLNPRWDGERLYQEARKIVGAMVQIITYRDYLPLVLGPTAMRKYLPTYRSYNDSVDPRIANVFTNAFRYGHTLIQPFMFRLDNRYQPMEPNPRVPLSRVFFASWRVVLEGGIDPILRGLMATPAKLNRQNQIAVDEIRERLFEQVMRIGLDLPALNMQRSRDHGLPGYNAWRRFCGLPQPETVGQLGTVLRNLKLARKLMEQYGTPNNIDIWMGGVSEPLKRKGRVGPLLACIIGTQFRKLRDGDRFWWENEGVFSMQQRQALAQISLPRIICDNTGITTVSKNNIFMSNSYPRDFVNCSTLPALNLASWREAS

myeloperoxidase (MPO) [3] = biological target: T2, myeloperoxidase (MPO); experiment: MPO + Cl halogenation inhibition (MCD assay); settings: chloride as substrate
[4] = bromide oxidation, MCD assay at 290 nm, 100 mM bromide, 20 nM EPO, pH 7.0, read-out: IC50 EPO + Br
[5] = Example 3, same protocol as Example 1, read-out: IC50 EPO/Br
[6] = Example 2, tests performed as in Example 1, read-out: IC50 value (EPO)

Row | Compound | IC50 [1, 4] [nM] | IC50 (lactoperoxidase (LPO)) [nM] | IC50 (myeloperoxidase (MPO) [2]) [nM] | IC50 (myeloperoxidase (MPO) [3]) [nM] | fold potential relative to compound (6) (EPO IC50) ([1]; compound (3) compared with non-halogenated compound (6)) [fold] | IC50 [1, 5] [nM] | IC50 [1, 6] [nM]
1 | NNC(=O)CNc1ccc(F)cc1F [(7), 2,4-di-fluoro-phenylaminoethane-hydrazide] | 34 | 322 | 2040 | 6550 | – | – | –
2 | NNC(=O)CNc1ccccc1F [(3), 2-fluoro-phenylaminoethane-hydrazide] | 9 | 100 | 1900 | 8800 | > 200 | – | –
3 | NNC(=O)CNc1ccc(Cl)cc1 [(2), 4-chloro-phenylaminoethane-hydrazide] | 24 | 30 | 1200 | 1970 | – | – | –
4 | NNC(=O)COc1ccccc1Br [PD17, 2-(2-bromophenoxy)acetohydrazide] | – | – | – | – | – | 3900 | –
5 | O=C(O)CNc1ccccc1F [PD01, N-(2-fluorophenyl)glycin] | – | – | – | – | – | 1000 | –
6 | NNC(=O)c1ccncc1 [isoniazide, pyridine-4-carbohydrazide, reference compound] | – | – | – | – | – | – | 6040
7 | NNC(=O)CNc1ccc(F)c(Cl)c1 [(4), 4-fluoro-3-chloro-phenylaminoethane-hydrazide] | 19 | 140 | 547 | 2400 | – | – | –
8 | Cc1ccc(NCC(=O)NN)cc1 [(8), 4-methyl-phenylaminoethane-hydrazide] | 2270 | 2770 | 29400 | 32200 | – | – | –
9 | NNC(=O)COc1ccc(F)cc1 [PD09, 2-(4-fluorophenoxy)acetohydrazide] | – | – | – | – | – | 2700 | –
10 | NNC(=O)CNc1ccccc1 [Compound (6), phenylaminoethane-hydrazide] | 2290 | 4970 | 84600 | 46000 | – | – | –
11 | NNC(=O)CSc1ccc(Cl)cc1 [PD06, 2-[(4-chlorophenyl)sulfanyl]acetohydrazide] | – | – | – | – | – | 1200 | –
12 | NNC(=O)CCc1ccccc1O [PD20, 3-(2-hydroxyphenyl)propanohydrazide] | – | – | – | – | – | 3100 | –
13 | CC(C)NNC(=O)c1ccncc1 [iproniazide, N′-isopropylisonicotinohydrazide, reference compound] | – | – | – | – | – | – | > 500000
14 | NNC(=O)CNc1ccc(F)cc1 [(1), 4-fluoro-phenylaminoethane-hydrazide] | 240 | 540 | 4120 | 5430 | – | – | –
15 | NNC(=O)CNc1cccc(Br)c1 [(5), 3-bromo-phenylaminoethane-hydrazide] | 17 | 40 | 1600 | 3700 | – | – | –
16 | O=C(O)CNc1ccc(Cl)cc1 [PD02, 2-[(4-chlorophenyl)amino]acetic acid] | – | – | – | – | – | 200 | –
